Patent publication US20160008376A1, “Compositions, Methods and Uses for Treating Gender-Biased Immune Disorders” (Biocopea Limited, priority 2014, published 2016)

System: antibodies directed to the CH47 region of the P1/P2 ribosomal protein
Test: Hormone added to sera of immunized female mice, antibody signal for the CH47 peptide
Assay type: binding
Conditions: overall
Protocol: In a second series of experiments, Testosterone (0 ng/mL, 0.5 ng/mL, 1 ng/mL, 2 ng/mL, and 4 ng/mL) or Progesterone (0 ng/mL, 2 ng/mL, 4 ng/mL, 8 ng/mL, and 14 ng/mL) was added to the sera of female mice immunized with a variety of different Chagas peptides (Formulation 1 or 2) that either include (B) or excluded (A) specifically peptide CH47. […] At low hormone concentrations there was an increase in the antibody signal with a subsequent decrease as the concentration of hormone further increased.

| SMILES | decrease in the IgG response (hormone 0-14 ng/mL) | decrease in the antibody response (hormone 0-4 ng/mL) |
| --- | --- | --- |
| CC(=O)[C@H]1CC[C@H]2[C@@H]3CCC4=CC(=O)CC[C@]4(C)[C@H]3CC[C@]12C [Progesterone, pregn-4-ene-3,20-dione] | 26.2% |  |
| C[C@]12CC[C@H]3[C@@H](CCC4=CC(=O)CC[C@@]43C)[C@@H]1CC[C@@H]2O [Testosterone] |  | 24.4% |
